# From US5780441A, “Sphingoglycolipid compounds and therapeutic uses thereof” (Kirin Beer Kabushiki Kaisha, priority 1993, dated 1998)
# Tests used:
# mouse splenic lymphocyte = test: In vitro mouse splenic lymphocyte-proliferation-stimulating effect (3H-TdR uptake); type: cell-based, mouse (BDF1 female); settings: 2 days; for Uptake of 3H-TdR (% of control), splenic lymphocytes: 2880 min
# Summary of the method: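 Spleen cells from 6-week-old female BDF1 mice, 2×10^6 cells/ml in 10% FCS RPMI 1640, cultured with vehicle or sample 2 days at 37° C, 5% CO2. ^3H-TdR (0.5 μCi/well) uptake over 6 h by scintillation counting, expressed as % of vehicle.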
# [1] = Solubility in water in aqueous Polysorbate 20 solutions; type: physicochemical; settings: vs Compound b
# Method: Compounds a and b comprising a monosaccharide as a constituent sugar which are disclosed in WO 93/05055 were synthesized as above. A 1 mg of each of the present compounds 4, 31 and 33 and Compound a and b was dissolved in 1 ml of an aqueous Polysorbate 20 solution in a variety of concentrations in order to observe visually the property.
# [2] = test system: P388 mouse leukemia cells; test: Life-span-prolonging (anti-tumor) effect on mice subcutaneously inoculated with P388 mouse leukemia cells; type: in vivo, mouse (CDF1 female); settings: for Survival days ave. ± s. d.: all marked ** (p < 0.01)
# Summary of the method: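 CDF1 female mice (6 weeks), 5 per group, inoculated subcutaneously with P388 leukemia cells; life-span prolongation assessed. Lentinan and picibanil given intravenously on days 1, 3, 5, 7 and 9 after implantation; sizofilan given subcutaneously on days 1 through 9. Statistics by Mann-Whitney test.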
# mouse bone marrow cells = test: In vitro mouse bone marrow cell-proliferation-promoting effect (3H-TdR uptake); type: cell-based, mouse (BDF1 female); settings: 4 days; for Uptake of 3H-TdR (% of control), bone marrow cells: 5760 min
# Summary of the method: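 Femoral bone marrow monocytes from 6-week female BDF1 mice (Lympholite M fraction, 1×10^6 cells/ml in 10% FCS RPMI 1640) cultured with sample for 4 days at 37 °C, 5% CO2. 3H-TdR (0.5 μCi/well) added for final 6 h; uptake ratio versus vehicle reported as activation rate.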
# [3] = test system: mixed lymphocyte culture reaction (spleen cells of C57BL/6 and BALB/C mice); test: Mixed lymphocyte culture reaction (MLR); type: cell-based, mouse (C57BL/6 stimulator, BALB/C responder); settings: 42 hours; for MLR activating rate (%): 2520 min
# Summary of the method: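 Mouse one-way MLR: mitomycin C-treated (50 μg/ml, 30 min) C57BL/6 spleen cells stimulated BALB/C responder spleen cells, 2×10^6 cells/ml each, cultured 42 h at 37 °C with sample. ³H-thymidine (0.5 μCi/well) incorporation over a further 8 h gave MLR activating rate as % of vehicle uptake.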
# lethally irradiated mice = test: Radioprotective effect: life-span prolongation of lethally irradiated mice; type: in vivo, mouse (BDF1 female); settings: 0.1 mg/kg i.v. days 0, 4, 8, 9 Gy X-ray, groups of 10, 0.1 mg/kg
# Summary of the method: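 Female BDF1 mice (6 weeks, groups of 10) given 9 Gy X-ray on day 0, then compound 0.1 mg/kg intravenously by tail vein on days 0, 4 and 8. Survival followed for 40 days.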
# B16 mouse melanoma cells = test: Tumor growth inhibition in mice subcutaneously inoculated with B16 mouse melanoma cells; type: in vivo, mouse (BDF1 female); settings: 0.1 mg/kg i.v. days 1, 5, 9; maximum during 20 days
# Summary of the method: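 Female BDF1 mice (6 weeks, n=6/group) bearing subcutaneous B16 melanoma. Tumor volume [(length×width×height)/2] measured on days 8, 12, 16 and 20 after implantation; growth inhibition rate computed from treated vs control tumor volumes.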
# [4] = test system: mouse splenic lymphocytes; test: Influence of Polysorbate on immunostimulating effect (3H-TdR uptake into mouse splenic lymphocytes); type: cell-based, mouse (BDF1 female); settings: for 3H-TdR uptake: mean of 3 wells
# Method: Experiment was performed with BDF1 female mice (6 weeks old) purchased from NIPPON SLC K.K. Spleens were removed from mice, and spleen cells were brayed with slide glasses and hemolized with NH4 Cl. 2×10^6cells/ml of the spleen cells which had been hemolized were suspended in 10% FCS RPMI 1640. The cell suspension (100 μl/well) and a vehicle or sample (10 μl/well) which was prepared so as to have a final level shown in Table 3 were added into wells of a round-bottomed 96 well plate, and cultured under the condition of 5% CO2 at 37° C. for 2 days. 0.5 μCi/well of ^3 H-thymidine (^3 H-TdR) was added. After 6 hours, the cells were harvested, and the amount of ^3 H-TdR uptaken into nucleus was measured by a liquid scintillation counter. The ratio (%) of the uptake of ^3 H-TdR in the sample group to that in the vehicle group was calculated and used as the in vitro mouse splenic lymphocyte-proliferation-stimulating rate.
# A sample of a solution of 1 mg of Compound 33 prepared in Experimental Example 8 in 1 ml of 10% or 0.1% Polysorbate 20, a sample of a solution of 1 mg of Compound b in 1 ml of 10% Polysorbate 20, or 10% and 0.1% Polysorbate 20, were prepared by subjecting to aseptic filtration followed by sequential 10 time dilution with PBS as shown in Table 5 in order to carry out the experiment described in Experimental Example 6.
# In this connection, 1 mg of Compound b was insoluble in 0.1% Polysorbate, and thus no experiment was conducted.
# [5] = 0.1 mg/kg i.v. on days 1, 5 and 9
compound,measurement,setting,value
"CCCCCCCCCCCCCCCCCCCCCC[C@@H](O)C(=O)N[C@@H](CO[C@H]1O[C@H](CO)[C@H](O)[C@H](O[C@H]2O[C@H](CO)[C@H](O)[C@H](O)[C@H]2NC(C)=O)[C@H]1O[C@H]1O[C@H](CO)[C@@H](O)[C@H](O)[C@H]1O)[C@H](O)[C@H](O)CCCCCCCCCCCCCC [Compound 4, O-(N-acetyl-2-amino-2-deoxy-α-D-galactopyranosyl)-(1→3)-O-[α-D-glucopyranosyl-(1→2)]-O-α-D-galactopyranosyl-(1→1)-(2S,3S,4R)-2-amino-N-[(R)-2-hydroxytetracosanoyl]-1,3,4-octadecanetriol]","Uptake of 3H-TdR (% of control), splenic lymphocytes",mouse splenic lymphocyte; 10^0 μg/ml,792 % of control
same,"Uptake of 3H-TdR (% of control), splenic lymphocytes",mouse splenic lymphocyte; 10^-1 μg/ml,692 % of control
same,"Uptake of 3H-TdR (% of control), splenic lymphocytes",mouse splenic lymphocyte; 10^-2 μg/ml,395 % of control
same,"Uptake of 3H-TdR (% of control), splenic lymphocytes",mouse splenic lymphocyte; 10^-3 μg/ml,325 % of control
same,"amount of Polysorbate 20 required for dissolving, relative to that required for Compound b",[1],1/100
same,Survival days ave. ± s. d.,[2]; [5],15.2 ± 0.5 days
same,T/C (%),"[2]; 0.1 mg/kg i.v. on days 1, 5 and 9, survival vs vehicle",119%
same,"Uptake of 3H-TdR (% of control), bone marrow cells",mouse bone marrow cells; 10^-1 μg/ml,512 % of control
same,"Uptake of 3H-TdR (% of control), bone marrow cells",mouse bone marrow cells; 10^-2 μg/ml,163 % of control
same,MLR activating rate (%),[3]; 1 × 10^0 μg/ml,209%
same,MLR activating rate (%),[3]; 1 × 10^-1 μg/ml,163%
same,Number of surviving mice,lethally irradiated mice; day 10,10 mice
same,Number of surviving mice,lethally irradiated mice; day 15,8 mice
same,Number of surviving mice,lethally irradiated mice; day 20,8 mice
same,Number of surviving mice,lethally irradiated mice; day 25,6 mice
same,Number of surviving mice,lethally irradiated mice; day 30,5 mice
same,Number of surviving mice,lethally irradiated mice; day 35,5 mice
same,Number of surviving mice,lethally irradiated mice; day 40,5 mice
same,"Maximum tumor growth inhibiting rate, TGIR (%)",B16 mouse melanoma cells,84.0%
"CCCCCCCCCCCCCCCCCCCCCCCCCC(=O)N[C@@H](CO[C@H]1O[C@H](CO[C@H]2O[C@H](CO)[C@H](O)[C@H](O)[C@H]2O)[C@H](O)[C@H](O)[C@H]1O)[C@H](O)[C@H](O)CCCCCCCCCCCCCC [Compound 33, O-α-D-galactopyranosyl-(1→6)-O-α-D-galactopyranosyl-(1→1)-(2S,3S,4R)-2-amino-N-hexacosanoyl-1,3,4-octadecanetriol]",activity at 1 µg/mL,"mouse splenic lymphocyte; Mus musculus, Splenic lymphocyte, 48 h, 10^0 μg/ml, read-out: Uptake of 3H-TdR (% of control), splenic lymphocytes",954%
same,"amount of Polysorbate 20 required for dissolving, relative to that required for Compound b",[1],1/100
same,Survival days ave. ± s. d.,[2]; [5],15.0 ± 0.7 days
same,response vs control in vivo at 0.1 mg/kg,"[2]; Mus musculus, P388, iv, 0.1 mg/kg i.v. on days 1, 5 and 9, survival vs vehicle, read-out: T/C (%)",117%
same,"life-span-prolonging effect (anti-tumor effect), in words",[2]; P388 s.c. system,intensive anti-tumor effects almost in the same level as that of Compound b
same,activity at 0.1 µg/mL,"mouse bone marrow cells; Mus musculus, Bone marrow cell, 96 h, 10^-1 μg/ml, read-out: Uptake of 3H-TdR (% of control), bone marrow cells",214%
same,activity at 0.01 µg/mL,"mouse bone marrow cells; Mus musculus, Bone marrow cell, 96 h, 10^-2 μg/ml, read-out: Uptake of 3H-TdR (% of control), bone marrow cells",763%
same,activity at 1 µg/mL,"[3]; Mus musculus, Lymphocyte, 1 × 10^0 μg/ml, read-out: MLR activating rate (%)",302%
same,activity at 0.1 µg/mL,"[3]; Mus musculus, Lymphocyte, 1 × 10^-1 μg/ml, read-out: MLR activating rate (%)",251%
same,"3H-TdR-uptake-stimulating effect, in words",[4]; 10 μg/ml (0.001% Polysorbate 20),intensive ^3 H-TdR-uptake-stimulating effect
same,"3H-TdR uptake in words, compound with Polysorbate 20",[4]; 10 μg/ml (0.1% Polysorbate 20) and 1 μg/ml (0.01%) vs 0.1 μg/ml (0.001%),suppressed
same,3H-TdR uptake,"[4]; 0.1% PS20 stock (compound 1 mg/ml), dilution 10^2",24213 cpm
same,3H-TdR uptake,"[4]; 0.1% PS20 stock (compound 1 mg/ml), dilution 10^3",23332 cpm
same,3H-TdR uptake,"[4]; 0.1% PS20 stock (compound 1 mg/ml), dilution 10^4",26249 cpm
same,3H-TdR uptake,"[4]; 0.1% PS20 stock (compound 1 mg/ml), dilution 10^5",23653 cpm
same,3H-TdR uptake,"[4]; 10% PS20 stock (compound 1 mg/ml), dilution 10^2",119 cpm
same,3H-TdR uptake,"[4]; 10% PS20 stock (compound 1 mg/ml), dilution 10^3",18447 cpm
same,3H-TdR uptake,"[4]; 10% PS20 stock (compound 1 mg/ml), dilution 10^4",24671 cpm
same,3H-TdR uptake,"[4]; 10% PS20 stock (compound 1 mg/ml), dilution 10^5",21677 cpm
